Experimental data published in patent US10800791B2, “Triazole ACC inhibitors and uses thereof” (Gilead Apollo, LLC, priority 2015, dated 2020).
In brackets after ≈: the same amount, converted by molar mass. Where two headings read alike, the source gives them in different places.

How the values were obtained:
human (hACC2) = human (hACC2) (Homo sapiens, UniProt O00763); assay: In vitro ACC inhibition assay (ADP-Glo), hACC2; format: biochemical; conditions: 5 nM ACC2, 20 μM ATP, 20 μM acetyl-CoA
Procedure: The detailed procedure is as follows. […] 10 μL ADP glo reagent was added. […] 20 μL kinase detection reagent was added.

C. albicans = assay: Antifungal Activity Assay (broth microtiter MIC), C. albicans; format: cell-based, Candida albicans; conditions: Candida albicans, ATCC90028, 48 h, ATCC 90028, 3 replicates, MIC recorded at 48 h, read-out: MIC, C. albicans ATCC 90028
Procedure: (§1) Compounds of the present invention were evaluated in an Antifungal Activity Assay. An exemplary procedure for the assay, which measures the susceptibility of various Candida species to antifungal compounds, follows. Compounds to be tested (including fluconazole and amphotericin B) were dissolved in DMSO to obtain a solution having a concentration of 1 mg/mL. These stock solutions were sterile filtered using a 0.22 um nylon syringe filter, then diluted in sterile water to achieve a final concentration of 128 μg/mL.
(§2) All species were grown from frozen stock by directly plating on to freshly prepared Sabouraud Dextrose agar (BD, Difco) and incubated overnight in ambient air at 35° C. for 24 h. A direct suspension was prepared in RPMI 1640+MOPS (Lonza, Biowhittaker) by taking individual colonies from the overnight cultures using sterile swabs soaked in sterile saline. The concentration of the suspension was determined using pre-determined standard curves. These suspensions were then diluted down to 5×10^3 CFU/mL to achieve a final concentration of 2.5×10^3 CFU/mL once added to the microtiter plate as per CLSI guidelines (M27-A3, Vol. 28 No. 14).
(§3) Broth microtiter MIC challenge plates were prepared following CLSI guidelines (M27-A3, Vol. 28 No. 14). The original CLSI guidelines focused on reading Candida MICs after 48 h of incubation. As reading after only 24 h offers a clear advantage of patient care, QC limits are being established for all drugs at 24 h. That being said there are no known interpretive breakpoints for amphotericin B at 24 h and the current fluconazole interpretive breakpoints are based on a 48 h reading. The MICs for the test compounds were recorded at 48 h. All MIC determinations were achieved by visually comparing the growth found in the antibiotic challenged wells to that of the growth control.

C. krusei = assay: Antifungal Activity Assay (broth microtiter MIC), C. krusei; format: cell-based, Candida krusei; conditions: Pichia kudriavzevii, ATCC6258, 48 h, ATCC 6258, 3 replicates, MIC recorded at 48 h, read-out: MIC, C. krusei ATCC 6258
Procedure: as §1, §2, §3

C. parapsilosis = assay: Antifungal Activity Assay (broth microtiter MIC), C. parapsilosis; format: cell-based, Candida parapsilosis; conditions: Lodderomyces parapsilosis, ATCC22019, 48 h, ATCC 22019, 3 replicates, MIC recorded at 48 h, read-out: MIC, C. parapsilosis ATCC 22019
Procedure: as §1, §2, §3

fungal (fACC2) = fungal (fACC2) (UniProt Q00955); conditions: read-out: fACC2 (in vitro ACC2 Inhibition Assay, IC50), ADP-Glo, 5 nM ACC2, 20 μM ATP, 20 μM acetyl-CoA
Sequence of fungal (fACC2) (Q00955 whole entry): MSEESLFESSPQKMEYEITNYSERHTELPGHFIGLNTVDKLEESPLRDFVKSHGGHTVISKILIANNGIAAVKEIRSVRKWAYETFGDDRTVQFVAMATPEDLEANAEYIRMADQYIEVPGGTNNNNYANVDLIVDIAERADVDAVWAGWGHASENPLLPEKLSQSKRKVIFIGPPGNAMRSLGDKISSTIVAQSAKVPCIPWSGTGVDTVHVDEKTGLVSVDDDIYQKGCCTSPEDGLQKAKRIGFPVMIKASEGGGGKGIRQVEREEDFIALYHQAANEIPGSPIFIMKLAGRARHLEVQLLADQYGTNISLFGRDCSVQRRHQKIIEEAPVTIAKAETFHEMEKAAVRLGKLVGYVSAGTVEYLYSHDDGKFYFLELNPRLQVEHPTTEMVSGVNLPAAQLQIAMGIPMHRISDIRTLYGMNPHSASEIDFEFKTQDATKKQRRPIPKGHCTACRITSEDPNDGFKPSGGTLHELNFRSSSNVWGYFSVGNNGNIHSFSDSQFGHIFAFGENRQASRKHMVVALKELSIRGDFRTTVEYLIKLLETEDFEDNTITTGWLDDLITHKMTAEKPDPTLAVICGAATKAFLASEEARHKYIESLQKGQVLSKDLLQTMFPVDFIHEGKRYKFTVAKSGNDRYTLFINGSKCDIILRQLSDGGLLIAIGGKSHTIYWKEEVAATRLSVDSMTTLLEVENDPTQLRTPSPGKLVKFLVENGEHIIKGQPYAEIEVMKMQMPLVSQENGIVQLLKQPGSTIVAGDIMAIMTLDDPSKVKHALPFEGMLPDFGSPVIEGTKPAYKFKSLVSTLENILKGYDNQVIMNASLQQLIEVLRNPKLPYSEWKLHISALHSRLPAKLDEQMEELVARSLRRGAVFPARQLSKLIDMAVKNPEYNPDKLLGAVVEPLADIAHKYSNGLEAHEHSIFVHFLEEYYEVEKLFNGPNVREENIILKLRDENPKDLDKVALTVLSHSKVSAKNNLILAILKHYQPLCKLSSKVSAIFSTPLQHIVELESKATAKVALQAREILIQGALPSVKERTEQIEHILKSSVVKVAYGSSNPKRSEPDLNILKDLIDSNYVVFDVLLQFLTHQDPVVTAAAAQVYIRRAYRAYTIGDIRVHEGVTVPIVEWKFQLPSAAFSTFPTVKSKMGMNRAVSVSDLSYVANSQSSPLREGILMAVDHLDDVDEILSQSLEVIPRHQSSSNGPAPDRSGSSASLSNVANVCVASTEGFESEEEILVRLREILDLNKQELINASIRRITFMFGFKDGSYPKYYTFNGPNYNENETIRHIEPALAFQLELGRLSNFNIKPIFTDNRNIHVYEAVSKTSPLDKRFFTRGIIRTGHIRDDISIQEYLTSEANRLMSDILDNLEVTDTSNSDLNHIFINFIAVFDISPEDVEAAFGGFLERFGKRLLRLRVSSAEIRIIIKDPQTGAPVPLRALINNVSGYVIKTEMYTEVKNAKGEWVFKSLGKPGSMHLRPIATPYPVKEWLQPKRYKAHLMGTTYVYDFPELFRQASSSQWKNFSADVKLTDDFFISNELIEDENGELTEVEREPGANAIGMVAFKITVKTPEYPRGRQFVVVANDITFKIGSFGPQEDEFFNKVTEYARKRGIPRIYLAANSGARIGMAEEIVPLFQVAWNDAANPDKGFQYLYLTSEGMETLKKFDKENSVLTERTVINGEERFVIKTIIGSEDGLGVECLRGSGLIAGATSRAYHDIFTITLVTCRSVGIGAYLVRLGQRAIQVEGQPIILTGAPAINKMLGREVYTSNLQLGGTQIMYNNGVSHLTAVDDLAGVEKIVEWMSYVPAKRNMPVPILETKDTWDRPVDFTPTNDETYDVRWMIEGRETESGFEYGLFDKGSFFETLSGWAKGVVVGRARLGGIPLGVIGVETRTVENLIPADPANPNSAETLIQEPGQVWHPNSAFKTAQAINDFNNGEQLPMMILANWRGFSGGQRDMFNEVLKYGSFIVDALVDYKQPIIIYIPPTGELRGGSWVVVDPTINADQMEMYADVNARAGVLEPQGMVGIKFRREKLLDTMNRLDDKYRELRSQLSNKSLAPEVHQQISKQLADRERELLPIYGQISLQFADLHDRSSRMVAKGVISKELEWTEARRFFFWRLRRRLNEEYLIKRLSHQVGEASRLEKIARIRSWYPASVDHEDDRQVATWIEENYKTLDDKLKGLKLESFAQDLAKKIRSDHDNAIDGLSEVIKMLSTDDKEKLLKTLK

Sequence of human (hACC2) (O00763 whole entry): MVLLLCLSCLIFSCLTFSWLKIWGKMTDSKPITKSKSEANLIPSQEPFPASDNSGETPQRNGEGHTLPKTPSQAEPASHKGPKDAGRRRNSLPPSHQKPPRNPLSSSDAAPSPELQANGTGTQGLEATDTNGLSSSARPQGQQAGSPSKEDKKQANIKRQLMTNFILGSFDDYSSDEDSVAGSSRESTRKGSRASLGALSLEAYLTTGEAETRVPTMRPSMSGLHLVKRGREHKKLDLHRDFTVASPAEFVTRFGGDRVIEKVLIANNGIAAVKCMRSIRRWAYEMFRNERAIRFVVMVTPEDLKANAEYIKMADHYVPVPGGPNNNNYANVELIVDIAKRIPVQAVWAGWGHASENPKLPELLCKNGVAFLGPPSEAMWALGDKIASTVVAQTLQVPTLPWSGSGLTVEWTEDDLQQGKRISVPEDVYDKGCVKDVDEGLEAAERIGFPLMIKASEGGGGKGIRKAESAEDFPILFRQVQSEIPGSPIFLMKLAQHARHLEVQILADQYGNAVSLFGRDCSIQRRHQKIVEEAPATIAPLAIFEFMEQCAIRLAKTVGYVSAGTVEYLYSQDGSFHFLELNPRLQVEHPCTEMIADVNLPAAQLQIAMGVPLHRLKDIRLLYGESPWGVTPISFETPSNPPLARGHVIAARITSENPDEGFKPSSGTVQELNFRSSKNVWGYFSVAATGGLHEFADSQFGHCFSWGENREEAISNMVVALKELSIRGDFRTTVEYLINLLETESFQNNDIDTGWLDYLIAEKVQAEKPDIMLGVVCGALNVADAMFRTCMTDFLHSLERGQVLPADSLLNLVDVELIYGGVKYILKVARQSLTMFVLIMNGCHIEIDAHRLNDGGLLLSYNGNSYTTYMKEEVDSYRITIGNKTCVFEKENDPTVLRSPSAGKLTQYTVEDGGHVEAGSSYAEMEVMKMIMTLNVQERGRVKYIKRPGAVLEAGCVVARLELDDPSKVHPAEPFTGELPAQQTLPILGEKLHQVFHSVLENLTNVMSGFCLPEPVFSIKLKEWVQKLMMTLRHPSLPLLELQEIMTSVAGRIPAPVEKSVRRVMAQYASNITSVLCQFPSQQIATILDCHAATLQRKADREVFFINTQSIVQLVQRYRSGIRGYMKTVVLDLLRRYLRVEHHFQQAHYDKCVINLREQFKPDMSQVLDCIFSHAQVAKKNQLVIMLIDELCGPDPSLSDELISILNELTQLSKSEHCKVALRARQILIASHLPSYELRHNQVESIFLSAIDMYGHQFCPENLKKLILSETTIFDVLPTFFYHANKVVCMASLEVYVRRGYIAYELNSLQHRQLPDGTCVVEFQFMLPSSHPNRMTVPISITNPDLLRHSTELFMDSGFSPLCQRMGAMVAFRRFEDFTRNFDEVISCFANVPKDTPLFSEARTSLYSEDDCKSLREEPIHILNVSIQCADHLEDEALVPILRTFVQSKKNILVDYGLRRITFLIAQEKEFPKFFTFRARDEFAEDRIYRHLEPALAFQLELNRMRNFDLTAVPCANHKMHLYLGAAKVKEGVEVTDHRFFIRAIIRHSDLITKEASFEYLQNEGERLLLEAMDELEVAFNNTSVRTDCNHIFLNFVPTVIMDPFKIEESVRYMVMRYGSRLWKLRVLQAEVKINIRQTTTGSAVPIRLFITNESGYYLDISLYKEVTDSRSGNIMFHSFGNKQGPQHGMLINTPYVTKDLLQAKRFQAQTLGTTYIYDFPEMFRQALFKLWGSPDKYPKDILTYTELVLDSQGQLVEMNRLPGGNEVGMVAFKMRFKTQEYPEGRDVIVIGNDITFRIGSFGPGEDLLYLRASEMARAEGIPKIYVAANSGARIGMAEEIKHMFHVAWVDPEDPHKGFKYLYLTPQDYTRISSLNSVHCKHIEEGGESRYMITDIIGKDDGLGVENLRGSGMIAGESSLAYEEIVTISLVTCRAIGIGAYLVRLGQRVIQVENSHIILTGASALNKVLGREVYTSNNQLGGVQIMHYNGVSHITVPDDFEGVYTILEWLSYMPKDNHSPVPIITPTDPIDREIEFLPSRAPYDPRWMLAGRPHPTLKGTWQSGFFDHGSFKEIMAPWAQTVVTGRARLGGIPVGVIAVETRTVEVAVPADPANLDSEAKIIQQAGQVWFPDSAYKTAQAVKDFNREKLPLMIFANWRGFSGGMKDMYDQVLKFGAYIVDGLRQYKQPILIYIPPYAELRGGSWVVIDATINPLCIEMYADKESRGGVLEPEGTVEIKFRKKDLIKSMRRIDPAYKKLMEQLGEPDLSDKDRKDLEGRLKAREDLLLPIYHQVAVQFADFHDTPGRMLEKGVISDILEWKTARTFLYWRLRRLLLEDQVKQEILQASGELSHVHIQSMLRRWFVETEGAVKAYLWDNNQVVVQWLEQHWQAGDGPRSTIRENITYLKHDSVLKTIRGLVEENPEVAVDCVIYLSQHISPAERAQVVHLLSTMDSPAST

Row | Structure (SMILES) | IC50 (human (hACC2); Table 2a) [nM] | IC50 (human (hACC2); Table 2b, additional results) [nM] | MIC (C. albicans; Table 3a) [µg/mL] | MIC (C. albicans; Table 3b (additional results)) [µg/mL] | MIC (C. krusei; Table 3a) [µg/mL] | MIC (C. krusei; Table 3b (additional results)) [µg/mL] | MIC (C. parapsilosis; Table 3a) [µg/mL] | MIC (C. parapsilosis; Table 3b (additional results)) [µg/mL] | IC50 (fungal (fACC2); Table 2a) [nM] | IC50 (fungal (fACC2); Table 2b, additional results) [nM]
1 | COc1ccc(F)cc1[C@H](Cn1c(=O)n(C(C)(C)C(=O)N2CC=CC2)c(=O)c2c(C)c(-n3nccn3)sc21)OCC(C)O (stereo partly shown) [Compound I-121] | 1 to 5 | 1 to 5 | 1.1 to 2 (≈ 1.8 to 3.26 µM) | 1.01 to 2 (≈ 1.65 to 3.26 µM) | 0.25 to 1 (≈ 0.408 to 1.63 µM) | > 4.01 | 1.1 to 2 (≈ 1.8 to 3.26 µM) | 2.01 to 4 (≈ 3.28 to 6.53 µM) | 1 to 5 | 1 to 5
2 | COCCOc1ccc(F)cc1[C@H](Cn1c(=O)n(C(C)(C)C(=O)NC(C)C)c(=O)c2c(C)c(-n3nccn3)sc21)OCCOC [Compound I-122] | 10 to 40 | 10 to 40 | 2.1 to 4 (≈ 3.25 to 6.18 µM) | 2.01 to 4 (≈ 3.11 to 6.18 µM) | 0.25 to 1 (≈ 0.387 to 1.55 µM) | 1.01 to 2 (≈ 1.56 to 3.09 µM) | 1.1 to 2 (≈ 1.7 to 3.09 µM) | 1.01 to 2 (≈ 1.56 to 3.09 µM) | 1 to 5 | 1 to 5
3 | COc1ccc(F)cc1[C@H](Cn1c(=O)n(C(C)(C)C(N)=O)c(=O)c2c(C)c(-n3nccn3)sc21)OCCC(=O)C(F)(F)F [Compound I-123] | 10 to 40 | 10 to 40 | 2.1 to 4 (≈ 3.35 to 6.38 µM) | > 4.01 | 1.1 to 2 (≈ 1.76 to 3.19 µM) | > 4.01 | 2.1 to 4 (≈ 3.35 to 6.38 µM) | > 4.01 | 1 to 5 | 1 to 5
4 | CCc1ccc(F)cc1[C@H](Cn1c(=O)n(C(C)(C)C(=O)O)c(=O)c2c(C)c(-n3nccn3)sc21)OCCO [Compound I-125] | 1 to 5 | 1 to 5 | 2.1 to 4 (≈ 3.85 to 7.33 µM) | > 4.01 | 2.1 to 4 (≈ 3.85 to 7.33 µM) | > 4.01 | 2.1 to 4 (≈ 3.85 to 7.33 µM) | > 4.01 | 1 to 5 | 0.3 to 1
5 | COCCO[C@@H](Cn1c(=O)n(C(C)(C)C(=O)OC(C)C)c(=O)c2c(C)c(-n3nccn3)sc21)c1cc(F)ccc1OC [Compound I-127] | 10 to 40 | 10 to 40 | 1.1 to 2 (≈ 1.82 to 3.31 µM) | 2.01 to 4 (≈ 3.33 to 6.63 µM) | 0.25 to 1 (≈ 0.414 to 1.66 µM) | 2.01 to 4 (≈ 3.33 to 6.63 µM) | 1.1 to 2 (≈ 1.82 to 3.31 µM) | > 4.01 | 1 to 5 | 1 to 5
6 | COCCO[C@@H](Cn1c(=O)n(C(C)(C)C(=O)OC2CCC2)c(=O)c2c(C)c(-n3nccn3)sc21)c1cc(F)ccc1OC [Compound I-128] | 10 to 40 | 10 to 40 | 2.1 to 4 (≈ 3.41 to 6.5 µM) | > 4.01 | 1.1 to 2 (≈ 1.79 to 3.25 µM) | 2.01 to 4 (≈ 3.26 to 6.5 µM) | 2.1 to 4 (≈ 3.41 to 6.5 µM) | 2.01 to 4 (≈ 3.26 to 6.5 µM) | 1 to 5 | 1 to 5
7 | COc1ccc(F)cc1[C@H](Cn1c(=O)n(C(C)(C)C(=O)OC(C)C)c(=O)c2c(C)c(-n3nccn3)sc21)OCCO [Compound I-129] | 1 to 5 | 1 to 5 | 1.1 to 2 (≈ 1.87 to 3.39 µM) | 1.01 to 2 (≈ 1.71 to 3.39 µM) | 0.25 to 1 (≈ 0.424 to 1.7 µM) | 0.25 to 1 (≈ 0.424 to 1.7 µM) | 0.25 to 1 (≈ 0.424 to 1.7 µM) | > 4.01 | 1 to 5 | 1 to 5
